Entries after “also recorded” stand apart in the source; their conditions may differ.
Tests used:
[1] = tested on: basolateral Na/K ATPase in LLCPK1 cells; assay: Basolateral Na/K ATPase expression by surface biotinylation and Western blot; assay type: cell-based; conditions: for expression of basolateral Na/K ATPase: LLCPK1 cells, Ang IV 10^−9 M×20 hours, siRNA transfection
Protocol: Representative autoradiograph of Na-K ATPase as detected by Western blot represented above bar-graph. Upper panel: representative autoradiograph of Na-K ATPase as detected by Western blot. Overexpression of APN( APN Over Exp) n=3 (except Ang IV, n=6) * P<0.05 compared to control paired t-test) Complementary measurements of Na/K ATPase expression by confocal microscopy-FIG. 5).
(§1) Na/K ATPase expression and activity are measured by basolateral surface biotinylation and oubain-inhibitable ATPase activity, respectively, in cells cultured in Transwell plates.
In complementary experiments, basolateral Na/K ATPase expression in cultured cells is measured both by biotinylation and confocal microscopy. Biotinylation technique to assess the surface Na/K ATPase protein has already been established in our laboratory. Biotinylation is performed as using NHS-S-S-biotin (Pierce). Labeling for 20 min at the basolateral domain in cells grown in transwells at 4° C. to stop endocytosis and internalization of antigen. Biotinylated antigens are immunoprecipitated with streptavidin agarose and released by incubation in 10 mM dithiothreitol, reconstituted in Laemmli buffer, subjected to SDS-PAGE and then probed with Anti alphal Na/K ATPase mAb (Upstate/ Millipore, Billerica, Mass.). For analysis, surface Na/K ATPase is compared to total protein as determined by immunoblotting in solubilized cell extract and with the amount of Na/K ATPase not removed by avidin precipitation method (intracellular pool).

[2] = tested on: Na/K ATPase in LLCPK1 cells; assay: Na/K ATPase distribution by confocal immunofluorescence; assay type: cell-based; conditions: for APN induced endocytosis of Na/K ATPase: LLCPK1 cells with APN overexpression plus siRNA; for Na/K ATPase distribution (endocytosis, membrane abundance): LLCPK1 cells, Ang IV 10 nM×12 hours, oubain 50 nM×12 hours (control)
Source text: FIGS. 6A-6G are scans of photographs showing Na/K ATPase distribution in LLCPK1 cells by immuno fluorescence (complementary to FIG. 5): Confocal images from z-stacked permeabilized LLCPK1 cells probed for Na/K ATPase using monoclonal Ab against the alpha subunit of Na/K ATPase (1:100). FIG. 6A: Control. […] All images were generated with a Zeiss LSM 410 laser scanning confocal microscope at 100×. All settings were the same for all images obtained. Images are representative of experiments repeated twice. Arrows: endocytosis of Na/K ATPase.
Confocal microscopy: Confocal fluorescence microscopy is performed using a Zeiss LSM 510 confocal microscope and Anti alphal Na/K ATPase mAb (Upstate/ Millipore, Billerica, Mass.) to further confirm the internalization of surface Na/K ATPase.

LLC-PK cells = assay: Quantitative immunohistochemistry for APN and Ang IV after siRNA; assay type: cell-based; conditions: siRNA 2 μg per well, 48 hours, Q-IHC, P<0.05 vs control
Protocol: The top panel is a scan of photographs showing quantitative immunohistochemistry (QIH-C) for APN and Ang IV. Cells were grown in 4 well chamber plates. For siRNA, each well was incubated (37° C. for 5 hours) with 1 ml media containing 4 μl of Enhancer R, 4 μl of RNAi (2 μg), 8 μl of Transmessenger Reagent and […] of optimem followed by 0.5 ml of optimem+20% FBS for 48 hours. The cells were fixed with 3.7% formaldehyde and stained using DakoCytomation staining kit. The amount of DAB staining was measured using Q-IHC. N=10 fields analyzed/transfection×2 transfections P<0.05 vs control. Upper panel: representative fields. Positive staining-arrows.
APN abundance regulates Ang IV: To initially address the hypothesis that the mechanism for APN-mediated regulation of Na/K ATPase is via Ang IV signaling, the effect of suppression of endogenous APN expression with siRNA on Ang IV abundance was measured in LLC-PK cells (FIG. 3A-3B). siRNA to APN decreased both APN and Ang IV expression, indicating the Ang IV level was regulated by APN.
For quantitative immunohistochemistry, a standard three-stage indirect immunoperoxidase technique is used on formalin fixed kidney sections. Images are acquired using a 4.9 million pixel digital scanning 24-bit RGB camera, saved in TIFF format, and used for subsequent analysis. […]

[3] = tested on: Dahl SS/Jr rats on 8% NaCl; assay: Radiotelemetric blood pressure monitoring during Ang IV infusion; assay type: in vivo, rat; conditions: 10 day Ang IV infusion 7 pmol/minute, n=4, P<0.05
Protocol: Radiotelemetric blood pressure monitoring with 10 day Ang IV (7 pmol/minute) infusion (===). Systolic BP (peak) 157-188 mmHg. BP for each rat normalized to day 9, each BP averaged during 12 hour dark cycle (rats maintained 12 hours light/dark cycle). Day 0—surgical implantation of pressure transducer and infusion pump. n =4,- - - less than days 6-9 (initial infusion of Ang IV) and 16-24 (P<0.05).
Continuous arterial blood pressure monitoring is by radiotelemetry in freely moving instrumented rats. An implantable osmotic pump is used for infusion experiments.
First, for tail-cuff measurements, the rats must be restrained which falsely elevates the blood pressure due to adrenergic storm. With radiotelemetry, the rats are unrestrained and blood pressures are measured continuously in freely moving rats in large cages. […] Third, with tail cuff, blood pressures are measured once or at most twice a day, whereas, with radiotelemetry, blood pressures are measured continuously, allowing assessment of diurnal patterns and the time-integral of overall blood pressure burden. […]
Survival Surgery and Radiotelemetry Measurement of Central Aortic Pressure. […] Once the transmitter is activated by a special magnet, measurements of pulsatile central aortic blood pressure is recorded continuously by placing an individual receiver under each rat's cage. […]

[4] = tested on: Na/K ATPase in LLCPK1 cells; assay: Na/K ATPase activity (oubain-inhibitable ATPase) in cultured cells; assay type: cell-based; conditions: FIG. 7, n=1 (triplicate)
Protocol: FIG. 7 is a graph showing Na/K ATPase activity parallels changes in basolateral Na/K ATPase expression in LLCPK1 cells treated with siRNA to APN and AT4; Ang IV and oubain (control). n=1 (triplicate). siRNA to APN (siRNA-APN); siRNA to AT4 (siRNA-AT4); APN over-expression (APN o/e).
as §1
Measurement of Na/KATPase expression and activity: Na/K ATPase activity in membranes isolated from proximal tubule fractions and membranes from cultured/transfected cell lines is measured as the rate of inorganic phosphate, using coloring reagent (10% ammonium molybdate in 10 N sulfuric acid +ferrous sulfate) released in the presence or absence of oubain.

rat = conditions: infusion into the renal artery, cited from earlier work
[5] = tested on: primary cultures of rat renal epithelial cells; conditions: cited from earlier work
rat proximal tubules = conditions: fresh suspensions of control or nystatin-stimulated rat proximal tubules; cited from earlier work
HK-2 cells = conditions: cited from earlier work
Dahl SR rats = assay: Infusion of Anpep inhibitor, salt-sensitivity by radiotelemetric blood pressure; assay type: in vivo, rat; conditions: preliminary experiments
Protocol: For these experiments, continuous radiotelemetric blood pressure monitoring is performed in rats instrumented with transducers and osmotic mini-pumps.

5′-AACCTGAGTCAGGACGTAAT-3′; SEQ ID NO: 4 [siRNA to AT4 receptor]
regulation (reduction) of Na/K ATPase expression by Ang IV ([1]; LLCPK1 cells treated with siRNA and Ang IV): partially abolishes; also recorded: abrogated | expression of basolateral Na/K ATPase [1]: increase | APN induced endocytosis of Na/K ATPase [2]: partially blocks | APN induced endocytosis of Na/K ATPase ([2]; listed as siRNA to the AT4 receptor): abrogrates

5′-UCGGGCACAGAUCAUUAUUd(TT)-3′; SEQ ID NO: 3 [siRNA to APN]
expression of basolateral Na/K ATPase [1]: increased | APN expression (LLC-PK cells): reduces; also recorded: decreased | Ang IV expression (LLC-PK cells): reduces; also recorded: decreased

CC[C@H](C)[C@H](NC(=O)[C@H](Cc1ccc(O)cc1)NC(=O)[C@@H](N)C(C)C)C(=O)N[C@@H](Cc1cnc[nH]1)C(=O)N1CCC[C@H]1C(=O)N[C@@H](Cc1ccccc1)C(=O)O [Ang IV, V-Y-I-H-P-F (SEQ ID NO: 2)]
blood pressure (BP) [3]: reduces blood pressure; also recorded: lowers arterial blood pressure | expression of basolateral Na/K ATPase [1]: tend to reduce; also recorded: reduced | Na/K ATPase distribution (endocytosis, membrane abundance) [2]: endocytosis and reduced membrane abundance of Na/K ATPase | activity of basolateral Na/K ATPase [4]: reduce | cortical blood flow (rat; rat): increases cortical blood flow | Na excretion (rat): increases urinary Na excretion; also recorded: promotes Na excretion | blood pressure (rat): lowers blood pressure | transcellular Na transport [5]: dose-dependent decrease | transcellular Na+ transport (proximal tubule O2 consumption rates) (rat proximal tubules): decreases | Na uptake (reflecting decreased flux) (HK-2 cells): increases Na uptake

CC(C)C[C@H](NC(=O)C(O)[C@H](N)Cc1ccccc1)C(=O)O (stereo partly drawn) [bestatin, (2S,3R)-3-amino-2-hydroxy-4-phenylbutanoyl-L-leucine]
salt-sensitivity (Dahl SR rats): induced sensitivity

C[C@@H]1O[C@@H](O[C@H]2C[C@@H](O)[C@]3(CO)[C@H]4[C@H](O)C[C@]5(C)[C@@H](C6=CC(=O)OC6)CC[C@]5(O)[C@@H]4CC[C@]3(O)C2)[C@H](O)[C@H](O)[C@H]1O [oubain]
Na/K ATPase distribution (endocytosis, membrane abundance) [2]: endocytosis

Reference: patent publication US20080026409A1, “SALT-SENSITIVE HYPERTENSION” (THE BOARD OF TRUSTEES OF THE UNIVERSITY OF ILLINOIS, priority 2006, published 2008)
